Measurements taken from article PMC6087734, “Loss of S100A1 expression leads to Ca^2+ release potentiation in mutant mice with disrupted CaM and S100A1 binding to CaMBD2 of RyR1” (Physiological Reports, 2018).
Entries after “also recorded” stand apart in the source; their conditions may differ. Residues, ends and D or L forms follow the SMILES beside them.

B1: S100A1, P23297 (protein)
chain: MGSELETAMETLINVFHAHSGKEGDKYKLSKKELKELLQTELSGFLDAQKDVDAVDKVMKELDENGDGEVDFQEYVVLVAALTVACNNFFWENS
B2: S100A1: 21 kDa dimeric molecule characterized by its EF‐hand Ca^2+‐binding motifs (protein, UniProt P23297 1-94, looked up)
Protein S100-A1: B1 chain

What was measured:
CaM = conditions: ref Lau et al. 2014, cited from earlier work; for CaM binding, in words: isothermal calorimetry, rabbit RyR1 peptides; for affinity sequence of CaM for the CaMBDs, in words: ITC data
From the text: There is substantial evidence that CaM and S100A1 may bind to multiple sites within the RyR1. […] Given the affinity of S100A1 for the CaMBDs, it is likely that the observed RyR1 re ...

[1] = molecular target: T1, S100A1 (recombinant human 15N-labeled, Ca2+-loaded) (Homo sapiens, UniProt P23297); assay: ITC of S100A1 association with RyR1 CaMBD peptides; type: binding; conditions: for N (sites) / Kd / ΔG / ΔH: 37°C, two-site fit, mean ± SD, n = 3; for difference in affinity between the tight and weak peptide-binding site: ratio of KD at the two sites on S100A1 dimer; for S100A1 binding, in words: 10 mmol/L Ca2+
T1 construct: made in house
T1 sequence (P23297 1-94): B1 chain
Protocol: All peptides were synthesized using […] peptide synthesis and their purity was determined to be >95% by high pressure liquid chromatography and mass spectrometry (Biosynthesis Inc., Lewisville, TX or GenScript, Piscataway, NJ). Three peptides derived from human RyR1 sequence were synthesized: CaMBD2, residues 3614‐3640, […]; CaMBD1, residues 1975‐1999, […]; and CaMBD3, residues 4303‐4326, […]. As they are internal peptides the C‐terminus was […] and N‐terminus was acetylated to neutralize the charged ends. The peptides stock were made in D6‐DMSO and their concentration were determined by quantitative amino acid analysis (Biosynthesis Inc., Lewisville, TX) and/or determined using the extinction coefficient for the methyl ester of N‐acetyl tryptophan, ε280 = 5600 cm^−1M^−1.
Expression and purification (>95% by SDS‐PAGE) of recombinant human ^15N‐labeled S100A1 was performed as previous described (Melville et al. 2017b). The concentrations of S100A1 stock solutions were determined using the Bio‐Rad Protein Assay (Bio‐Rad Inc., Hercules, CA) using a known concentration of BSA as the standard. Concentrations are given in S100A1 monomer concentration except where indicated.
Heat changes during the titration of each CaMBD peptide into Ca^2+‐S100A1 were measured using a VP‐ITC titration microcalorimeter (MicroCal, Inc., Northhampton, MA) as done previously (Wilder et al. 2003). All solutions were degassed under vacuum and equilibrated at 37°C prior to titration. For each titration the sample cell (1.4 mL) contained 10 mmol/L TES, pH 7.2, 15 mmol/L NaCl, and 10 mmol/L CaCl2, 0.5 mmol/L TCEP, <5% D6‐DMSO (from peptide stocks or equivalent D6‐DMSO added to controls), and 0.04 mmol/L CaMBD peptide, while the reference cell contained water. Upon equilibration, 0.20–0.35 mmol/L S100A1 (dimer concentration) prepared in the same buffer without peptide but equivalent D6‐DMSO was injected using the default injection rate with a time interval between each injection to allow the sample to return to baseline. The resulting titration curves were corrected for protein‐free buffer control.
Images were collected and evaluated using the same settings and enhancing parameters so that all images could be directly compared. Line‐scan images were analyzed using LSM examiner (Carl Zeiss, Jena, DE). Calculation of AP‐induced Ca^2+ signals were conducted using Origin Pro 8 (OriginLab Corporation, Northampton, MA, USA) and SPSS for Windows ver. 24.0 (SPSS Inc., Chicago, IL). Summary data were reported as mean ± SD. Normal distribution of data was assessed using the Kolmogorov–Smirnov test. Unpaired two sample Student's t‐test was used to test for differences between the means of the indo 1‐resting values and peak AP‐induced Ca^2+ transients from two different samples. ITC results were background buffer subtracted and analyzed using the Origin for ITC software (MicroCal, Northampton, MA) and fit using two‐site fitting model (Freire et al. 1990). Differences were considered significant when P < 0.05.

[2] = molecular target: RyR1 CaMBD1 peptide (site 1) (Homo sapiens); assay: ITC
[3] = molecular target: RyR1 CaMBD1 peptide (site 2) (Homo sapiens); assay: ITC
[4] = molecular target: RyR1 CaMBD2 peptide (site 1) (Homo sapiens); assay: ITC
[5] = molecular target: RyR1 CaMBD2 peptide (site 2) (Homo sapiens); assay: ITC
[6] = molecular target: RyR1 CaMBD3 peptide (site 1) (Homo sapiens); assay: ITC
[7] = molecular target: RyR1 CaMBD3 peptide (site 2) (Homo sapiens); assay: ITC
RyR1 = conditions: in vitro FRET; ref Rebbeck et al. 2016; cited from earlier work
From the text: In fast‐type skeletal muscle the intracellular concentration of S100A1 was reported to be ~3 μmol/L (Haimoto and Kato 1987; Zimmer et al. 1991), with total intracellular concentration of CaM being about 5 μmol/L (Robertson et al. 1981).

[8] = peptide-binding site 1, ITC VP-ITC, 10 mmol/L TES pH 7.2, 15 mmol/L NaCl, 10 mmol/L CaCl2, 0.5 mmol/L TCEP, <5% D6-DMSO, 0.04 mmol/L peptide in cell, 0.20-0.35 mmol/L S100A1 (dimer) injected
[9] = peptide-binding site 1, ITC, pH 7.2, 10 mmol/L CaCl2
[10] = peptide-binding site 2, ITC, pH 7.2, 10 mmol/L CaCl2

Row | Molecule | CaM binding, in words (CaM) | N (sites) [1, 8] | Kd [1, 9] | ΔG [1, 9] | ΔH [1, 9] | Kd [1, 10] | N (sites) [1, 10] | ΔG [1, 10] | ΔH [1, 10] | difference in affinity between the tight and weak peptide-binding site [1] | affinity sequence of CaM for the CaMBDs, in words (CaM) | also measured
1 | rCaMBD1: peptide from rabbit RyR1, residues 3614‐3640 (as printed), Lau et al. 2014 (KSKKAVWHKLLSKQRRRAVVACFRMTP; UniProt P11716 3614-3640, looked up, fragment) [reference compound] | CaM can bind |  |  |  |  |  |  |  |  |  |  | 
2 | rCaMBD3: peptide from rabbit RyR1, residues 4295‐4325, Lau et al. 2014 (RLAAAAARALRGLSYRSLRRRVRRLRRLTAR; UniProt P11716 4295-4325, looked up, fragment) [reference compound] | CaM can bind |  |  |  |  |  |  |  |  |  |  | 
3 | CSCC[C@H](NC(=O)[C@H](CCCNC(=N)N)NC(=O)[C@H](Cc1ccccc1)NC(=O)[C@H](CS)NC(=O)[C@H](C)NC(=O)[C@@H](NC(=O)[C@@H](NC(=O)[C@H](C)NC(=O)[C@H](CCCNC(=N)N)NC(=O)[C@H](CCCNC(=N)N)NC(=O)[C@H](CCCNC(=N)N)NC(=O)[C@H](CCC(N)=O)NC(=O)[C@H](CCCCN)NC(=O)[C@H](CO)NC(=O)[C@H](CC(C)C)NC(=O)[C@H](CC(C)C)NC(=O)[C@H](CCCCN)NC(=O)[C@H](Cc1c[nH]cn1)NC(=O)[C@H](Cc1c[nH]c2ccccc12)NC(=O)[C@@H](NC(=O)[C@H](C)NC(=O)[C@H](CCCCN)NC(=O)[C@H](CCCCN)NC(=O)[C@H](CO)NC(=O)[C@H](CCCCN)NC(C)=O)C(C)C)C(C)C)C(C)C)C(=O)N[C@H](C(=O)N1CCC[C@H]1C(N)=O)[C@@H](C)O [CaMBD2] (Ac-KSKKAVWHKLLSKQRRRAVVACFRMTP-NH2) |  | 0.78 ± 0.09 | 0.146 ± 0.0239 µM | -9.7 ± 0.1 kcal/mol | -11.4 ± 0.2 kcal/mol | 17 µM | 0.51 ± 0.15 | -6.8 ± 0.1 kcal/mol | -10.3 ± 3.0 kcal/mol | 114 fold | CaMBD2 > CaMBD3 > CaMBD1 | 
4 | CC(=O)N[C@@H](CCCNC(=N)N)C(=O)N[C@@H](C)C(=O)N[C@@H](CC(C)C)C(=O)N[C@@H](CCCNC(=N)N)C(=O)NCC(=O)N[C@@H](CC(C)C)C(=O)N[C@@H](CO)C(=O)N[C@@H](Cc1ccc(O)cc1)C(=O)N[C@@H](CCCNC(=N)N)C(=O)N[C@@H](CO)C(=O)N[C@@H](CC(C)C)C(=O)N[C@@H](CCCNC(=N)N)C(=O)N[C@@H](CCCNC(=N)N)C(=O)N[C@@H](CCCNC(=N)N)C(=O)N[C@H](C(=O)N[C@@H](CCCNC(=N)N)C(=O)N[C@@H](CCCNC(=N)N)C(=O)N[C@@H](CC(C)C)C(=O)N[C@@H](CCCNC(=N)N)C(=O)N[C@@H](CCCNC(=N)N)C(=O)N[C@@H](CC(C)C)C(=O)N[C@H](C(=O)N[C@@H](C)C(=O)N[C@@H](CCCNC(=N)N)C(N)=O)[C@@H](C)O)C(C)C [CaMBD3] (Ac-RALRGLSYRSLRRRVRRLRRLTAR-NH2) |  | 1.79 ± 0.08 | 0.0089 ± 0.011 µM | -11.9 ± 1.2 kcal/mol | -3.6 ± 0.7 kcal/mol | 6.7 µM | 1.27 ± 0.07 | -7.4 ± 0.2 kcal/mol | -6.1 ± 0.9 kcal/mol | 755 fold | CaMBD2 > CaMBD3 > CaMBD1 | S100A1 binding, in words ([1]; ITC): binds with different affinities; also recorded: tightest S100A1 binding
5 | rCaMBD2: peptide from rabbit RyR1, residues 1975‐1999 (as printed), Lau et al. 2014 (SRYALLMRAFTMSAAETARRTREFR; UniProt P11716 1975-1999, looked up, fragment) [reference compound] | CaM can bind |  |  |  |  |  |  |  |  |  |  | 
6 | CC[C@H](C)[C@H](NC(=O)[C@H](CC(C)C)NC(=O)[C@H](CC(C)C)NC(=O)CNC(=O)[C@H](Cc1ccc(O)cc1)NC(=O)[C@H](CCCNC(=N)N)NC(=O)[C@H](CO)NC(C)=O)C(=O)N[C@@H](CCCCN)C(=O)N[C@@H](C)C(=O)N[C@@H](Cc1ccccc1)C(=O)N[C@@H](CO)C(=O)N[C@@H](CCSC)C(=O)N[C@H](C(=O)N[C@@H](C)C(=O)N[C@@H](C)C(=O)N[C@@H](CCC(=O)O)C(=O)N[C@H](C(=O)N[C@@H](C)C(=O)N[C@@H](CCCNC(=N)N)C(=O)N[C@@H](CCCNC(=N)N)C(=O)N[C@H](C(=O)N[C@@H](CCCNC(=N)N)C(=O)N[C@@H](CCC(=O)O)C(=O)N[C@@H](Cc1ccccc1)C(=O)N[C@@H](CCCNC(=N)N)C(N)=O)[C@@H](C)O)[C@@H](C)O)[C@@H](C)O [CaMBD1] (Ac-SRYGLLIKAFSMTAAETARRTREFR-NH2) |  | 1.14 ± 0.10 | 1.3 ± 0.284 µM | -8.4 ± 0.1 kcal/mol | -4.5 ± 0.7 kcal/mol | 21 µM | 0.75 ± 0.07 | -6.7 ± 0.2 kcal/mol | -10.8 ± 0.4 kcal/mol | 16 fold | CaMBD2 > CaMBD3 > CaMBD1 | S100A1 binding, in words ([1]; ITC): binds with different affinities; also recorded: weakest affinity
7 | B1 |  |  |  |  |  |  |  |  |  |  |  | Kd [2]: 1.3 µM; Kd [3]: 21 µM; Kd [4]: 0.146 µM; Kd [5]: 17 µM; Kd [6]: 0.0089 µM; Kd [7]: 6.7 µM
8 | B2 |  |  |  |  |  |  |  |  |  |  |  | S100A1 concentration required for RyR1 modulation, in words (RyR1): high unphysiological (micromolar) concentration
